From patent US11219118B2 (Drexel University, priority 2018, dated 2022)

Test system: CT26 challenge tumors
Test: Anti-tumor vaccination assay (whole-cell vaccine, live CT26 challenge)
Assay type: in vivo, Balb/c mice
Details: challenge tumor at day 26; mice immunized with CT26 cells treated in vitro (plasma 300 mJ or Cisplatin 50 μM 24 hours)
Description: To ascertain whether the DAMP signals elicited by plasma could enhance immune responses against cancer, a vaccination assay was performed. […] Cells were prepared for inoculation and injected into the left flank as a whole-cell vaccine to allow an immune response to develop. One week after immunization, mice were challenged with live CT26 cancer cells on the opposite flank and tumor growth was monitored twice a week until day 26 when the study was terminated as a subset of the animals reached IACUC-approved endpoints (FIG. 8A). CT26 cells treated with media only or Cisplatin (50 μM for 24 hours), a non-ICD inducer, [60] were used as controls.
Cisplatin-vaccine was prepared from cells incubated for 24 hours in Cisplatin media. Media-Vaccine was prepared from cells cultured in regular, complete media for 24 hours. Cisplatin- and media-vaccines were used as controls.
After a 24-hour incubation 3×10^6 cells in 100 μL of PBS were inoculated subcutaneously into the left flank of Balb/c mice. Seven days later, mice were challenged with 3×10^5 live CT26 cells subcutaneously injected into the right flank. Tumors were measured twice weekly with calipers and all mice were euthanized on […].

**Q.** N.N.[Cl][Pt][Cl] [Cisplatin] was tested. Which mean tumor volume did it give?
**A.** 1041.8±208.3 mm^3
